System: antiserum (antibody raised in rabbits to the antigen of Example I, N-TFA-p-aminoamphetamine coupled to BSA)
Test: Radioimmune assay for amphetamine: competitive inhibition of 3H-d-amphetamine binding to, and cross-reactivity of, antiserum raised to the antigen of Example I
Settings: for Percent Cross-Reactivity: method of Abraham, relative quantity that produces 50% inhibition x 100, d-amphetamine = 100; for Percent Inhibition of Binding 3H-d-amphetamine: 3H-d-amphetamine 137 picograms, 2 hours, 4° C

Compound | Percent Cross-Reactivity | other results
C[C@@H](N)Cc1ccccc1 [1-amphetamine] | 1.45% | 
C[C@H](N)Cc1ccccc1 [d-amphetamine] | 100% | Percent Inhibition of Binding 3H-d-amphetamine (250 picograms of unlabeled amphetamine): 12%; Percent Inhibition of Binding 3H-d-amphetamine (500 picograms of unlabeled amphetamine): 22%; Percent Inhibition of Binding 3H-d-amphetamine (1,000 picograms of unlabeled amphetamine): 33.5%; Percent Inhibition of Binding 3H-d-amphetamine (10,000 picograms of unlabeled amphetamine): 83.0%
CNCC(O)c1ccc(O)c(OC)c1 (stereo not shown) [metanephrine] | < 0.0125% | 
CN[C@@H](C)Cc1ccccc1 [methadrine] | 0.45% | 
COc1cc(C(O)CN)ccc1O (stereo not shown) [normetanephrine] | < 0.0125% | 
NCCc1ccc(O)cc1 [tyramine] | 3.4% | 
